In this test the test system is MV-4-11 cells. Put plainly: Gene expression microarray analysis (Affymetrix PrimeView) and GSEA. Also on record: RFU PODN (11730768_x_at) / Fold change /veh PODN (11730768_x_at) / RFU LINC00158 (11744669_a_at) / Fold change /veh LINC00158 (11744669_a_at) / RFU DUSP10 (11751237_a_at) / Fold change /veh DUSP10 (11751237_a_at) / RFU ID3 (11757404_x_at) / Fold change /veh ID3 (11757404_x_at) / RFU PLEKHG5 (11737974_s_at) / Fold change /veh PLEKHG5 (11737974_s_at) / RFU LRRC4B (11730491_at) / Fold change /veh LRRC4B (11730491_at) / RFU GIMAP4 (11747438_a_at) / Fold change /veh GIMAP4 (11747438_a_at) / RFU KRT8 (11758183_x_at) / Fold change /veh KRT8 (11758183_x_at) / RFU CNN1 (11734310_a_at) / Fold change /veh CNN1 (11734310_a_at) / RFU VPS37D (11726825_at) / Fold change /veh VPS37D (11726825_at) / RFU C10orf10 (11716522_x_at) / Fold change /veh C10orf10 (11716522_x_at) / RFU KIR2DL2 /// KIR2DL4 /// KIR2DL5A /// KIR2DL5B /// KIR2DS1 /// KIR2DS2 /// KIR2DS3 /// KIR2DS4 /// KIR3DL3 /// KIR3DL3 /// KIR3DS1 (11738374_at) / Fold change /veh KIR2DL2 /// KIR2DL4 /// KIR2DL5A /// KIR2DL5B /// KIR2DS1 /// KIR2DS2 /// KIR2DS3 /// KIR2DS4 /// KIR3DL3 /// KIR3DL3 /// KIR3DS1 (11738374_at) / RFU C1QL1 (11718748_at) / Fold change /veh C1QL1 (11718748_at) / RFU TMPRSS4 (11747572_a_at) / Fold change /veh TMPRSS4 (11747572_a_at) / RFU HAMP (11756126_x_at) / Fold change /veh HAMP (11756126_x_at) / RFU RNFT2 (11725882_a_at) / Fold change /veh RNFT2 (11725882_a_at) / RFU NR4A2 (11747474_a_at) / Fold change /veh NR4A2 (11747474_a_at) / RFU ABCC12 (11746883_a_at) / Fold change /veh ABCC12 (11746883_a_at) / RFU TMEM136 (11760407_x_at) / Fold change /veh TMEM136 (11760407_x_at) / RFU CLDN22 /// WWC2 (11732394_at) / Fold change /veh CLDN22 /// WWC2 (11732394_at) / RFU HLA-DPB1 (11760878_x_at) / Fold change /veh HLA-DPB1 (11760878_x_at) / RFU SPINT1 (11716480_a_at) / Fold change /veh SPINT1 (11716480_a_at) / RFU GAP43 (11754022_s_at) / Fold change /veh GAP43 (11754022_s_at) / RFU A4GNT (11735810_at) / Fold change /veh A4GNT (11735810_at) / RFU PRB3 (11715151_x_at) / Fold change /veh PRB3 (11715151_x_at) / RFU TUBB4B (11761932_at) / Fold change /veh TUBB4B (11761932_at) / RFU CAPN14 (11732068_a_at) / Fold change /veh CAPN14 (11732068_a_at) / RFU TMCC2 (11721928_a_at) / Fold change /veh TMCC2 (11721928_a_at) / RFU IRGQ (11745062_a_at) / Fold change /veh IRGQ (11745062_a_at) / RFU FAM174B (11720279_a_at) / Fold change /veh FAM174B (11720279_a_at) / RFU TMPRSS4 (11748680_a_at) / Fold change /veh TMPRSS4 (11748680_a_at) / RFU FAM212B (11763350_a_at) / Fold change /veh FAM212B (11763350_a_at) / RFU PLEKHG5 (11743358_a_at) / Fold change /veh PLEKHG5 (11743358_a_at) / RFU ZSCAN30 (11745921_a_at) / Fold change /veh ZSCAN30 (11745921_a_at) / RFU CMKLR1 (11741424_a_at) / Fold change /veh CMKLR1 (11741424_a_at) / RFU LOC101060620 /// MAPK8IP1 (11723275_at) / Fold change /veh LOC101060620 /// MAPK8IP1 (11723275_at) / RFU SPTSSB (11747773_x_at) / Fold change /veh SPTSSB (11747773_x_at) / RFU PRSS12 (11739890_at) / Fold change /veh PRSS12 (11739890_at) / RFU BIN1 (11741810_x_at) / Fold change /veh BIN1 (11741810_x_at) / RFU WNT11 (11732464_a_at) / Fold change /veh WNT11 (11732464_a_at) / RFU C10orf10 (11716521_a_at) / Fold change /veh C10orf10 (11716521_a_at) / RFU C5orf56 (11738089_at) / Fold change /veh C5orf56 (11738089_at) / RFU CYB561 (11721691_x_at) / Fold change /veh CYB561 (11721691_x_at) / RFU ANKRD19P (11752326_a_at) / Fold change /veh ANKRD19P (11752326_a_at) / RFU OR2T12 /// OR2T33 /// OR2T8 (11738714_s_at) / Fold change /veh OR2T12 /// OR2T33 /// OR2T8 (11738714_s_at) / RFU VCAN (11748164_a_at) / Fold change /veh VCAN (11748164_a_at) / RFU JSRP1 (11732532_at) / Fold change /veh JSRP1 (11732532_at) / RFU KRTAP10-11 (11738290_x_at) / Fold change /veh KRTAP10-11 (11738290_x_at) / RFU MYO3A (11730013_a_at) / Fold change /veh MYO3A (11730013_a_at) / RFU EBF3 (11725865_a_at) / Fold change /veh EBF3 (11725865_a_at) / RFU CAMK2N1 (11719241_x_at) / Fold change /veh CAMK2N1 (11719241_x_at) / RFU C5orf56 (11738088_a_at) / Fold change /veh C5orf56 (11738088_a_at) / RFU OLFML3 (11715873_a_at) / Fold change /veh OLFML3 (11715873_a_at) / RFU LOC100653217 /// NTM (11731650_a_at) / Fold change /veh LOC100653217 /// NTM (11731650_a_at) / RFU MAPK11 (11762145_a_at) / Fold change /veh MAPK11 (11762145_a_at) / RFU FIZ1 (11724087_x_at) / Fold change /veh FIZ1 (11724087_x_at) / RFU OASL (11726364_x_at) / Fold change /veh OASL (11726364_x_at) / RFU SOX15 (11748057_x_at) / Fold change /veh SOX15 (11748057_x_at) / RFU CD79A (11719716_a_at) / Fold change /veh CD79A (11719716_a_at) / RFU HIST1H1D (11736915_at) / Fold change /veh HIST1H1D (11736915_at) / RFU CASKIN2 (11723855_a_at) / Fold change /veh CASKIN2 (11723855_a_at) / RFU LOC730098 (11760151_x_at) / Fold change /veh LOC730098 (11760151_x_at) / RFU OR4N2 (11742367_at) / Fold change /veh OR4N2 (11742367_at) / RFU PRRT2 (11749266_a_at) / Fold change /veh PRRT2 (11749266_a_at) / RFU SNX32 (11753110_a_at) / Fold change /veh SNX32 (11753110_a_at) / RFU CDHR5 (11726645_a_at) / Fold change /veh CDHR5 (11726645_a_at) / RFU RCAN1 (11760418_a_at) / Fold change /veh RCAN1 (11760418_a_at) / RFU FAM167A (11723789_a_at) / Fold change /veh FAM167A (11723789_a_at) / RFU FAM26E (11764081_at) / Fold change /veh FAM26E (11764081_at) / RFU ISYNA1 (11749810_s_at) / Fold change /veh ISYNA1 (11749810_s_at) / RFU ACY1 (11761880_at) / Fold change /veh ACY1 (11761880_at) / RFU 11764098_at / Fold change /veh 11764098_at / RFU SAMD14 (11745864_x_at) / Fold change /veh SAMD14 (11745864_x_at) / RFU NPB (11741838_a_at) / Fold change /veh NPB (11741838_a_at) / RFU TMPRSS6 (11731388_a_at) / Fold change /veh TMPRSS6 (11731388_a_at) / RFU KRTAP10-2 (11738614_at) / Fold change /veh KRTAP10-2 (11738614_at) / RFU ARHGAP8 /// PRR5-ARHGAP8 (11727945_x_at) / Fold change /veh ARHGAP8 /// PRR5-ARHGAP8 (11727945_x_at) / RFU KRTAP5-7 /// NADSYN1 (11734609_at) / Fold change /veh KRTAP5-7 /// NADSYN1 (11734609_at) / RFU RASL12 (11751679_a_at) / Fold change /veh RASL12 (11751679_a_at) / RFU CDKN2B (11736163_a_at) / Fold change /veh CDKN2B (11736163_a_at) / RFU PRF1 (11729649_at) / Fold change /veh PRF1 (11729649_at) / RFU, ZNF638 /// ZNF638-IT1 / Fold change vs veh, ZNF638 /// ZNF638-IT1 / RFU, PANK3 / Fold change vs veh, PANK3 / RFU, SH3YL1 / Fold change vs veh, SH3YL1 / RFU, ZEB2 / Fold change vs veh, ZEB2 / RFU, NRIP1 / Fold change vs veh, NRIP1 / RFU, PTTG1IP / Fold change vs veh, PTTG1IP / RFU, CAPN2 / Fold change vs veh, CAPN2 / RFU, MED14 / Fold change vs veh, MED14 / RFU, SNORA58 / Fold change vs veh, SNORA58 / RFU, C1orf63 / Fold change vs veh, C1orf63 / RFU, LRRFIP1 / Fold change vs veh, LRRFIP1 / RFU, NDUFAF7 / Fold change vs veh, NDUFAF7 / RFU, SLC12A2 / Fold change vs veh, SLC12A2 / RFU, IBTK / Fold change vs veh, IBTK / RFU, ESF1 / Fold change vs veh, ESF1 / Fold change vs veh, TMEM50B / RFU, TAOK1 / Fold change vs veh, TAOK1 / RFU, ACBD3 / Fold change vs veh, ACBD3 / RFU, TMA16 / Fold change vs veh, TMA16 / RFU, RWDD3 / Fold change vs veh, RWDD3 / RFU, BCAT1 / Fold change vs veh, BCAT1 / RFU, EDEM3 / Fold change vs veh, EDEM3 / RFU, TMEM33 / Fold change vs veh, TMEM33 / RFU, WDR75 / Fold change vs veh, WDR75 / RFU, AHCTF1 / Fold change vs veh, AHCTF1 / RFU, TFRC / Fold change vs veh, TFRC / RFU, ZDHHC17 / Fold change vs veh, ZDHHC17 / RFU, NOM1 / Fold change vs veh, NOM1 / RFU, ARL8B / Fold change vs veh, ARL8B / RFU, ZBTB11 / Fold change vs veh, ZBTB11 / RFU, TAMM41 / Fold change vs veh, TAMM41 / RFU, KIAA1704 /// LOC100996395 / Fold change vs veh, KIAA1704 /// LOC100996395 / RFU, ING1 / Fold change vs veh, ING1 / RFU, TRMT61B / Fold change vs veh, TRMT61B / RFU, FUBP3 / Fold change vs veh, FUBP3 / RFU, TP53 / Fold change vs veh, TP53 / RFU, TNKS2 / Fold change vs veh, TNKS2 / RFU, ZFP14 / Fold change vs veh, ZFP14 / RFU, ACTR2 / Fold change vs veh, ACTR2 / RFU, PPP3R1 / Fold change vs veh, PPP3R1 / RFU, PIK3R1 / Fold change vs veh, PIK3R1 / RFU, HNRNPA1 / Fold change vs veh, HNRNPA1 / RFU, RNF170 / Fold change vs veh, RNF170 / RFU, ZNF28 / Fold change vs veh, ZNF28 / RFU, RNGTT / Fold change vs veh, RNGTT / RFU, OGT / Fold change vs veh, OGT / RFU, BRD1 / Fold change vs veh, BRD1 / RFU, MARS / Fold change vs veh, MARS / RFU, ZNF655 / Fold change vs veh, ZNF655 / RFU, FAHD1 / Fold change vs veh, FAHD1 / RFU, BDP1 / Fold change vs veh, BDP1 / RFU, LRRCC1 / Fold change vs veh, LRRCC1 / RFU, ARID1A / Fold change vs veh, ARID1A / RFU, ZNF146 / Fold change vs veh, ZNF146 / RFU, ZNF330 / Fold change vs veh, ZNF330 / RFU, GPN3 / Fold change vs veh, GPN3 / RFU, C9orf123 / Fold change vs veh, C9orf123 / RFU, N4BP2L2 / Fold change vs veh, N4BP2L2 / RFU, ARFIP1 / Fold change vs veh, ARFIP1 / RFU, FAM179B / Fold change vs veh, FAM179B / RFU, BCL10 / Fold change vs veh, BCL10 / RFU, UHRF1BP1L / Fold change vs veh, UHRF1BP1L / RFU, BET1 / Fold change vs veh, BET1 / RFU, CNOT2 / Fold change vs veh, CNOT2 / RFU, ZNF268 / Fold change vs veh, ZNF268 / Fold change vs veh, ZNF507 / RFU, DGCR2 / Fold change vs veh, DGCR2 / RFU, WDSUB1 / Fold change vs veh, WDSUB1 / Fold change vs veh, HSP90B1 /// MIR3652 / RFU, ADSS / Fold change vs veh, ADSS / RFU, GK / Fold change vs veh, GK / RFU, ZNF148 / Fold change vs veh, ZNF148 / RFU, TAF9 / Fold change vs veh, TAF9 / RFU, SLC1A5 / Fold change vs veh, SLC1A5 / RFU, SLMO2 / Fold change vs veh, SLMO2 / RFU, ABCC4 / Fold change vs veh, ABCC4 / RFU, LOC101060439 /// RAP1B / Fold change vs veh, LOC101060439 /// RAP1B / RFU, RFX7 / Fold change vs veh, RFX7 / RFU, GTPBP10 / Fold change vs veh, GTPBP10 / RFU, CNEP1R1 / Fold change vs veh, CNEP1R1 / RFU, BIVM-ERCC5 /// ERCC5 / Fold change vs veh, BIVM-ERCC5 /// ERCC5 / RFU, ILF3 / Fold change vs veh, ILF3 / RFU 11762660_at / Fold change /veh 11762660_at / RFU VCAN (11757783_s_at) / Fold change /veh VCAN (11757783_s_at) / RFU DDX43 (11728927_at) / Fold change /veh DDX43 (11728927_at) / RFU KRT8 (11758188_x_at) / Fold change /veh KRT8 (11758188_x_at) / RFU NKD1 (11759106_at) / Fold change /veh NKD1 (11759106_at) / RFU SRD5A1 (11742802_a_at) / Fold change /veh SRD5A1 (11742802_a_at) / RFU TPSAB1 /// TPSB2 (11721975_s_at) / Fold change /veh TPSAB1 /// TPSB2 (11721975_s_at) / RFU GSTM3 (11746129_a_at) / Fold change /veh GSTM3 (11746129_a_at) / RFU IL23R (11737362_x_at) / Fold change /veh IL23R (11737362_x_at) / RFU TMEM51 (11727254_a_at) / Fold change /veh TMEM51 (11727254_a_at) / RFU PIWIL2 (11732686_x_at) / Fold change /veh PIWIL2 (11732686_x_at) / RFU ORM1 (11744905_x_at) / Fold change /veh ORM1 (11744905_x_at) / RFU CCDC152 (11743942_at) / Fold change /veh CCDC152 (11743942_at) / RFU ECM1 (11717891_a_at) / Fold change /veh ECM1 (11717891_a_at) / RFU IL23R (11748794_a_at) / Fold change /veh IL23R (11748794_a_at) / RFU TNFAIP8L3 (11732012_x_at) / Fold change /veh TNFAIP8L3 (11732012_x_at) / RFU MBOAT4 (11741988_at) / Fold change /veh MBOAT4 (11741988_at) / RFU 11764193_at / Fold change /veh 11764193_at / RFU TMEM53 (11763286_at) / Fold change /veh TMEM53 (11763286_at) / RFU MAGEB2 (11727129_at) / Fold change /veh MAGEB2 (11727129_at) / RFU TMEM200A (11744735_a_at) / Fold change /veh TMEM200A (11744735_a_at) / RFU CCDC152 (11751479_a_at) / Fold change /veh CCDC152 (11751479_a_at) / RFU FAM211A (11726209_a_at) / Fold change /veh FAM211A (11726209_a_at) / RFU RGS16 (11746705_a_at) / Fold change /veh RGS16 (11746705_a_at) / RFU VCAN (11755009_s_at) / Fold change /veh VCAN (11755009_s_at) / RFU RHOB (11743442_s_at) / Fold change /veh RHOB (11743442_s_at) / RFU RGS16 (11720943_a_at) / Fold change /veh RGS16 (11720943_a_at) / RFU RGS16 (11720944_at) / Fold change /veh RGS16 (11720944_at) / RFU, VPS4B / Fold change vs veh, VPS4B / RFU, CREB1 / Fold change vs veh, CREB1 / RFU, DNAJC13 / Fold change vs veh, DNAJC13 / RFU, GNAQ / Fold change vs veh, GNAQ / RFU, CDK5R1 / Fold change vs veh, CDK5R1 / RFU, ZRANB3 / Fold change vs veh, ZRANB3 / RFU, CUL4A / Fold change vs veh, CUL4A / RFU, CCNY / Fold change vs veh, CCNY / RFU, UFL1 / Fold change vs veh, UFL1 / RFU, COG3 / Fold change vs veh, COG3 / RFU, DIAPH2 / Fold change vs veh, DIAPH2 / RFU, SKA2 / Fold change vs veh, SKA2 / RFU, AFF3 / Fold change vs veh, AFF3 / RFU, LMF1 / Fold change vs veh, LMF1 / RFU, IPO11 / Fold change vs veh, IPO11 / RFU, DFFB / Fold change vs veh, DFFB / RFU, FOXP1 / Fold change vs veh, FOXP1 / RFU, CARD8 / Fold change vs veh, CARD8 / RFU, STRN3 / Fold change vs veh, STRN3 / RFU, ADK / Fold change vs veh, ADK / RFU, RASSF2 / Fold change vs veh, RASSF2 / RFU, WIPF1 / Fold change vs veh, WIPF1 / RFU, LARP1B / Fold change vs veh, LARP1B / RFU, RASA1 / Fold change vs veh, RASA1 / RFU, RB1 / Fold change vs veh, RB1 / RFU, PPFIA1 / Fold change vs veh, PPFIA1 / RFU, MAT2A / Fold change vs veh, MAT2A / RFU, CCT5 / Fold change vs veh, CCT5 / RFU, WDR92 / Fold change vs veh, WDR92 / RFU, CUX1 / Fold change vs veh, CUX1 / RFU, TTC7A / Fold change vs veh, TTC7A / RFU, TMEM135 / Fold change vs veh, TMEM135 / RFU, DEPTOR / Fold change vs veh, DEPTOR / RFU, CPM / Fold change vs veh, CPM / RFU, DNAJB6 / Fold change vs veh, DNAJB6 / RFU, CACNA2D3 / Fold change vs veh, CACNA2D3 / RFU, DTX4 / Fold change vs veh, DTX4 / RFU, TFCP2 / Fold change vs veh, TFCP2 / RFU, GMCL1 /// GMCL1P1 / Fold change vs veh, GMCL1 /// GMCL1P1 / RFU, AEBP2 / Fold change vs veh, AEBP2 / RFU, SNHG1 /// SNORD22 /// SNORD25 /// SNORD26 /// SNORD27 /// SNORD28 /// SNORD29 /// SNORD31 / Fold change vs veh, SNHG1 /// SNORD22 /// SNORD25 /// SNORD26 /// SNORD27 /// SNORD28 /// SNORD29 /// SNORD31 / Fold change (Aza/veh), C12orf56 (ProbeSet 11735607_a_at) / Fold change (ACY-1035/veh), C12orf56 (ProbeSet 11735607_a_at) / Fold change (Aza/veh), FGFR1OP (ProbeSet 11751329_s_at) / Fold change (ACY-1035/veh), FGFR1OP (ProbeSet 11751329_s_at) / Fold change (Aza/veh), VPS36 (ProbeSet 11739960_a_at) / Fold change (ACY-1035/veh), VPS36 (ProbeSet 11739960_a_at) / RFU SYPL1 (11715823_x_at) / Fold change /veh SYPL1 (11715823_x_at) / RFU IGFBP7 (11715501_s_at) / Fold change /veh IGFBP7 (11715501_s_at) / RFU REEP3 (11722064_at) / Fold change /veh REEP3 (11722064_at) / RFU IGLL1 (11728026_x_at) / Fold change /veh IGLL1 (11728026_x_at): dose or concentration left out as unconfirmed. As to conditions: MV-4-11 cells, 48 hours. The format is cell-based, human.

Consider `Nc1ccc(-c2cccs2)cc1NC(=O)c1ccc2c(c1)cc(C1CC1)n2CCN1CCOCC1` [ACY-1035], for which the “RFU PRSS12 (11739890_at)” value was 8.28 RFU.
